Tests used:
Settings in all cases: rat, po, 3 mg/kg
in vivo [1] = experiment: in vivo
Description: Half life in transgenic rat harboring human angiotensinogen and human renin gene at 3 mg/kg, po

in vivo [2] = experiment: in vivo; remark: listed apart in the source
Description: Clearance in transgenic rat harboring human angiotensinogen and human renin gene at 3 mg/kg, po

in vivo [3] = experiment: in vivo; remark: listed apart in the source

Work on COCCCc1ccc(Cl)c(CN(C(=O)[C@H]2CNCC[C@@H]2c2ccc(OCCOc3c(Cl)cc(C)cc3Cl)nc2)C2CC2)c1 yielded a half-life (in vivo [1]) of 3.6 h, a CL/F (in vivo [2]) of 29 mL/min/kg and a bioavailability (in vivo [3]) of 28%.
Compound COCCc1ccc(Cl)c(CN(C(=O)[C@H]2CNCC[C@@H]2c2ccc(OCCOc3c(Cl)cc(C)cc3Cl)nc2)C2CC2)c1 has a half-life (in vivo [1]) of 5.8 h, a CL/F (in vivo [2]) of 21 mL/min/kg and a bioavailability (in vivo [3]) of 35%.
In the case of COCCc1ccc(Cl)c(CN(C(=O)[C@H]2CNCC[C@@H]2c2ccc(N3CC[C@@H](Oc4c(Cl)cc(C)cc4Cl)C3)nc2)C2CC2)c1, the half-life (in vivo [1]) is reported as 5.6 h, the CL/F (in vivo [2]) is reported as 35 mL/min/kg and the bioavailability (in vivo [3]) is reported as 8%.
